Assay results taken from patent US11976083B2, “Inhibitors of peptidylarginine deiminases” (Gilead Sciences, Inc., priority 2020, dated 2024).

Target: T1, human PAD4 (Homo sapiens, UniProt Q9UM07)
T1 construct: human PAD4 (NM_012387), A2-P663, was PCR amplified; His-SUMO (N, cleaved yes); made in house; host or cells: E. coli BL21(DE3)
Assay: In vitro PAD4 BAEE biochemical assay
Conditions: BAEE substrate 3 mM, 5 nM PAD4, 2 mM calcium chloride; geometric mean of multiple experiments
Summary of the method: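 Fluorescence read-out (ex 405/em 535 nm) of isoindole formed from ammonia, o-phthalaldehyde and DTT after EDTA stop. Reaction: 5 nM PAD4, 2 mM CaCl2, 3 mM BAEE, 2 h, 25 °C, after 30 min enzyme–compound preincubation. Normalised to BB-Cl-Amidine (50 µM) and DMSO controls.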

T1 sequence (Q9UM07 2-663): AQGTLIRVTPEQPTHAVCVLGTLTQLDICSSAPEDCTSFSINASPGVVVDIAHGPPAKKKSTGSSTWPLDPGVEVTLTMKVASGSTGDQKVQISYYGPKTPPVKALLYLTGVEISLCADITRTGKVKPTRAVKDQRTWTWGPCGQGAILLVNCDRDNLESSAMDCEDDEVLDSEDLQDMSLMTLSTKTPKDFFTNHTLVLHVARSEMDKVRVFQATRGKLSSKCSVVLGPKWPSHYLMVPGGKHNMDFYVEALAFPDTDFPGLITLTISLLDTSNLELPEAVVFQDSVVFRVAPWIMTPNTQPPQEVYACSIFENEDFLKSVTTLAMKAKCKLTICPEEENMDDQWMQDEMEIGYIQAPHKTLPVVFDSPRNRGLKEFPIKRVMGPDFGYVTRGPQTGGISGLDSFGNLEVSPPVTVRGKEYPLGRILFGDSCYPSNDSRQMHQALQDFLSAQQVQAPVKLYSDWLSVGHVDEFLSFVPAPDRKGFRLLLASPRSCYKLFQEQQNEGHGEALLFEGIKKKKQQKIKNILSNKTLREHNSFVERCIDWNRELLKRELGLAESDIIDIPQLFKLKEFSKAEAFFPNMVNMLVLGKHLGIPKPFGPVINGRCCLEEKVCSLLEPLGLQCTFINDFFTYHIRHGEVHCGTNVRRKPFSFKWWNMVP

Row | SMILES | IC50
1 | COc1cc(C(=O)N2[C@H]3CC[C@@H]2[C@H](N)C3)cc2nc(-c3cc4ccc5nc4n3CCCCCCCC(=O)N3C[C@@H]4C[C@@H]4[C@H]53)n(C)c12 [Example 135, (2~{R),3~{S},5~{R})-17-[5-[(1~{R},2~{R},4~{S})-2-amino-7-azabicyclo[2.2.1]heptane-7-carbonyl]-7-methoxy-1-methyl-benzimidazol-2-yl]-7,16,22-triazapentacyclo [14.5.2.0^{2,7}.0^{3,5}.0^{19,23}] tricosa-1(22),17,19(23),20-tetraen-8-one] | 37 nM
2 | COc1cc(C(=O)N2[C@H]3CC[C@@H]2[C@H](N)C3)cc2nc(-c3cc4ccc5nc4n3CCCCCC[C@@H](C)C(=O)N[C@@H]5C)n(C)c12 [Example 136, (8~{R},11~{R})-17-[5-[(1~{R},2~{R},4~{S})-2-amino-7-azabicyclo[2.2.1]heptane-7-carbonyl]-7-methoxy-1-methyl-benzimidazol-2-yl]-8,11-dimethyl-1,10,19-triazatricyclo[10.5.2.0^{15,18}]nonadeca-12(19),13,15(18),16-tetraen-9-one] | 40 nM
3 | COc1cc(C(=O)N2[C@H]3CC[C@@H]2[C@H](N)C3)cc2nc(-c3cc4ccc5nc4n3CCCCCC[C@H](C)C(=O)N[C@@H]5C)n(C)c12 [Example 137, (8~{S},11~{R})-17-[5-[(1~{R},2~{R},4~{S})-2-amino-7-azabicyclo[2.2.1]heptane-7-carbonyl]-7-methoxy-1-methyl-benzimidazol-2-yl]-8,11-dimethyl-1,10,19-triazatricyclo[10.5.2.0^{15,18}]nonadeca-12(19),13,15(18),16-tetraen-9-one] | 35 nM
4 | COc1cc(C(=O)N2[C@H]3CC[C@@H]2[C@H](N)C3)cc2nc(-c3cc4ccc5nc4n3CCCCCC[C@@H]3CCN(C3=O)[C@@H]5C)n(C)c12 [Example 138, (2˜{R},6˜{R})-14-[5-[(1˜{R},2˜{R},4˜{S})-2-amino-7-azabicyclo[2.2.1]heptane-7-carbonyl]-7-methoxy-1-methyl-benzimidazol-2-yl]-2-methyl-3,13,19-triazatetracyclo[11.5.2.1^{3,6}.0^{16,20}]henicosa-1(19),14,16(20),17-tetraen-21-one] | 18 nM
5 | COc1cc(C(=O)N2[C@H]3CC[C@@H]2[C@H](N)C3)cc2nc(-c3cc4ccc5nc4n3CC3(CCCCCC(=O)N[C@@H]5C)CC3)n(C)c12 [Example 139, (11~{R})-17-[5-[(1~{R},2~{R},4~{S})-2-amino-7-azabicyclo[2.2.1]heptane-7-carbonyl]-7-methoxy-1-methyl-benzimidazol-2-yl]-11-methyl-spiro[1,10,19-triazatricyclo[10.5.2.0^{15,18}]nonadeca-12(19),13,15(18),16-tetraene-3,1′-cyclopropane]-9-one] | 40 nM
6 | COc1cc(C(=O)N2CCC[C@@H](N)C2)cc2nc(-c3cc4ccc5nc4n3CC(C)(C)CCCCCC(=O)N[C@@H]5C)n(C)c12 [Example 140, (11~{R})-17-[5-[(3~{R})-3-aminopiperidine-1-carbonyl]-7-methoxy-1-methyl-benzimidazol-2-yl]-3,3,11-trimethyl-1,10,19-triazatricyclo[10.5.2.0^{15,18}]nonadeca-12(19),13,15(18),16-tetraen-9-one] | 97 nM
7 | COc1cc(C(=O)N2[C@H]3CC[C@@H]2[C@H](N)C3)cc2nc(-c3cc4ccc5nc4n3CC(C)(C)CCCCCC(=O)N[C@@H]5C)n(C)c12 [Example 141, (11~{R})-17-[5-[(1~{R},2~{R},4~{S})-2-amino-7-azabicyclo[2.2.1]heptane-7-carbonyl]-7-methoxy-1-methyl-benzimidazol-2-yl]-3,3,11-trimethyl-1,10,19-triazatricyclo[10.5.2.0^{15,18}]nonadeca-12(19),13,15(18),16-tetraen-9-one] | 68 nM
